Assay results: US8394799B2, “Compounds that inhibit HIF-1 activity, the method for preparation thereof and the pharmaceutical composition containing them as an effective component” (Korea Research Institute of Bioscience and Biotechnology, priority 2006, dated 2013)

What was measured:
[1] = tested on: HIF-1; test: Assay of IC50, AGS cells (HRE-luciferase transfected); assay type: cell-based; conditions: Homo sapiens
Description: (§1) Six tandem repeats of HRE (hypoxia Responsive Element 5′-ACGTG-3′), which is present in a human VEGF gene, was inserted into the multi-cloning region of a pGL3-basic vector (Promega) containing a luciferase gene as a reporter gene to produce a recombinant pGL3-HRE-luciferase vector which was then used to assay the compounds prepared in the above Examples for inhibition activity against HIF-mediated transcriptional activity.

[2] = tested on: metastatic breast carcinoma cell line MDA-MB-435; test: In vivo anticancer activity in nude mice implanted with MDA-MB-435; conditions: for inhibition of the growth of the cancer cells compared to the control: once a day, MDA-MB-435 in nude mice; for deaths in six mice of each group: mouse, in vivo
Description: Female nude mice 5-6 weeks old (Crj:BALB/c nu/nu, Charles River) were bred in germ-free breeding rooms maintained at constant temperature and humidity. The nude mice were anesthetized before incision of the chest skin. The metastatic breast carcinoma cell line MDA-MB-435, obtained from DR D. R. Welch, Univ. Alabama, was implanted at a count of 10^6 cells/mouse into the mammary gland fat pad, and the incisions were then closed with surgical clips. The nude mice were divided into test groups and a control group, each consisting of 6 mice. […] For the control group, Solution A alone was used at a dose of 100 μl once a day. Thereafter, tumor volumes and body weights were measured once a week. Tumor volumes were calculated according to the following Mathematic Formula 1. Tumor Volume (mm^3)=(Length of Long Axis,mm)×(Length of Short Axis,mm)^2×0.5 <Mathematic Formula 1>

[3] = Acute toxicity, single oral administration in mice; conditions: mouse, in vivo, 300 mg/kg
Experimental: An acute cytotoxicity assay was conducted with five-week-old SPF C57BL/6 mice (Samtako BioKorea) as follows.

[4] = tested on: EPO or VEGF; test: Expression of EPO or VEGF, target genes of HIF-1, in hypoxia (RT-PCR); assay type: cell-based, human; conditions: RT-PCR, 0, 1, 3 and 10 μM, 12 hrs in 1% O2, FIG. 3
Description: The inhibitory effect of the compounds of the present invention on HIF-1 activity was confirmed by assaying the compounds prepared in Examples for inhibition activity on the expression of EPO or VEGF, a representative target gene of HIF-1 through an analysis of RT-PCR (reverse transcriptase polymerase chain reaction). VEGF, a target gene of HIF-1, encodes an angiogenesis factor playing a pivotal role in the growth and metastasis of cancer and EPO is a hematosis hormone gene, and both genes have been known for being deeply related to the development and the aggravation of cancer. The compounds of the present invention were measured for inhibition of VEGF expression in AGS, Hep3B and HepG2 cells. In this regard, the hepatocellular carcinoma cell line Hep3B was treated with compounds prepared in Examples 18 and 126 as follows.
After being grown to 70% confluency in culture dishes, HepG2 cells (American Type Culture Collection) were treated with various concentrations (0 μm, 1 μm 3 μM and 10 μm) of compounds prepared in Examples 18, 44, 113 or 126 and incubated for 12 hrs in hypoxia (1% O2, 94%, N2, and 5% CO2, expressed as ‘1% O2’ in FIG. 2). Total RNA was isolated using an RNA Mini kit (Qiagen). From the total RNA (2 μg) thus obtained, cDNA was synthesized using an RT-PCR kit (Invitrogen), and was used to amplify EPO or VEGF by PCR in the presence of EPO or VEGF-specific primers. EPO or VEGF expression was quantitatively analyzed by running the PCR products on agarose gel. As an internal control, GAPDH was simultaneously amplified so as to analyze the selective inhibition of each compound for VEGF. Base sequences of primers used for the amplification of EPO, VEGF and GAPDH used in the present invention were as follows.

[5] = tested on: HIF-1; test: HRE reporter assay, HIF activity % remaining, AGS cells; assay type: cell-based, human; conditions: summary in words of the data of Table 1 and Table 2; cell line not stated
Description: as §1
The hepatocellular carcinoma cell line HepG2 or Hep3B, both available from ATCC (American Type Culture Collection), and the gastric carcinoma cell line AGS, available from ATCC, were grown at 70% confluency in culture dishes and co-transfected with an internal control vector (pRL-CMV, Promega) and the recombinant pGL3-HRE-luciferase vector using Lipofectamine Plus Reagent (Invitrogen). HepG2 and AGS cells were treated with the compound of Chemical Formula 1A while Hep3B and AGS cells were treated with the compound of Chemical Formula 1B. The compound of Chemical Formula 1A was used in a concentration of 10 μm for HepG2 or AGS cells. The compound of Chemical Formula 1B was used in a concentration of 30 μM for Hep3B and in a concentration of 10 μM for AGS cells. […] The compounds prepared in Examples above were assayed for inhibition activity against HIF-1 by measuring the activity of the luciferase, induced in hypoxia, using a Dual-luciferase reporter assay system (Promoga). In this regard, the luciferase activity was measured for 10 sec using a Microlumat Plus luminometer (EG&G Berthold). In the meanwhile, the renilla luciferase activity from the control vector PRL-CMV (Promega) was measured to normalize the data obtained.
On the basis of the renilla luciferase activity, the HIF activity % remaining after treatment with the compounds was corrected.

[6] = tested on: HIF-1; test: Assay of IC50, Hep3B cells (HRE-luciferase transfected); assay type: cell-based; conditions: Homo sapiens
Description: as §1

[7] = tested on: HIF-1; test: Assay of IC50, SK-Hep-1 cells (same manner); assay type: cell-based; conditions: Homo sapiens, SK-HEP1; SK-Hep-1 cell line, compounds 0.01 to 100 μM for 16 hrs
Description: as §1

Question: What does the source list for `COC(=O)c1ccc(O)c(NC(=O)COc2ccc(C34CC5CC(CC(C5)C3)C4)cc2)c1` [Example 18, 3-[2-(4-Adamantan-1-yl-phenoxy)acetyl-amino]-4-hydroxy benzoic acid methyl ester]?
Answer: IC50 [1]: 700 nM; inhibition of the growth of the cancer cells compared to the control ([2]; 20 mg/kg): 46.5%; inhibition of the growth of the cancer cells compared to the control ([2]; 50 mg/kg): 64.6%; deaths in six mice of each group [2]: No dead were observed; toxicity (death, clinical syndromes, body weight, autopsy) [3]: no toxicity; expression of EPO or VEGF in hypoxia [4]: inhibit the expression of EPO or VEGF dose-dependently; inhibition activity against the transcription mediated by HIF-1, induced in hypoxia [5]: excellent inhibition activity; IC50 [6]: 2.6 µM

Question: For `O=C(COc1ccc(C23CC4CC(CC(C4)C2)C3)cc1)Nc1cccc(C(=O)O)c1` [Example 44, 3-[2-(4-Adamantan-1-yl-phenoxy)-acetylamino]-benzoic acid], which IC50 [1] is on record?
Answer: 2500 nM

Question: What about the “expression of EPO or VEGF in hypoxia” value [4] of the same compound?
Answer: inhibit the expression of EPO or VEGF dose-dependently

Question: And the “inhibition activity against the transcription mediated by HIF-1, induced in hypoxia” value (“inhibition activity” for short) [5]?
Answer: excellent inhibition activity

Question: What about the IC50 [6] of the same compound?
Answer: 5 µM

Question: Which IC50 [7] does the source give for `NC(=O)c1ccnc(NC(=O)COc2ccc(C34CC5CC(CC(C5)C3)C4)cc2)c1` [Example 113, 2-[2-(4-adamantan-1-yl-phenoxy)acetylamino]-isonicotinamide] here?
Answer: 590 nM

Question: What about the “expression of EPO or VEGF in hypoxia” value [4] of the same compound?
Answer: inhibit the expression of EPO or VEGF dose-dependently

Question: And the “inhibition activity” value [5]?
Answer: excellent inhibition activity

Question: For `COC(=O)c1ccc2[nH]c(COc3ccc(C45CC6CC(CC(C6)C4)C5)cc3)nc2c1` [Example 126, 2-(4-adamantan-1-yl-phenoxymethyl)-1H-benzoimidazole-5-carboxylic acid methyl ester], which “inhibition of the growth of the cancer cells compared to the control” value ([2]; 20 mg/kg) is on record?
Answer: 53%

Question: What about the “inhibition of the growth of the cancer cells compared to the control” value ([2]; 50 mg/kg) of the same compound?
Answer: 58.6%

Question: What about the “deaths in six mice of each group” value [2] of the same compound?
Answer: No dead were observed

Question: What about the “toxicity (death, clinical syndromes, body weight, autopsy)” value [3] of the same compound?
Answer: no toxicity

Question: And the “expression of EPO or VEGF in hypoxia” value [4]?
Answer: inhibit the expression of EPO or VEGF dose-dependently

Question: What about the “inhibition activity” value [5] of the same compound?
Answer: excellent inhibition activity
